# Legend:
# [1] = Measurement of light fastness (residual rate after ultraviolet irradiation); format: physicochemical; conditions: for Evaluation of light fastness: 5 mg in acetonitrile 20 ml, 1 cm quartz cell, ultraviolet light 3 J/cm^2, residual rate by liquid chromatography; for light fastness (in words): based on the results in Table 1
# Experimental: Each (5 mg) of the compounds was dissolved in acetonitrile (20 ml), sealed in a 1 cm quartz cell, and the quartz cell was irradiated with ultraviolet light under a condition of 3 J/cm^2 using EXECURE 3000-W manufactured by HOYA-SCHOTT CORPORATION, so that a residual rate of each compound was measured. Amounts (masses) of each compound before and after light irradiation were calculated using liquid chromatography. In the table, “A” represents a residual rate of equal to or greater than 80%, “B” represents a residual rate of equal to or greater than 50% and less than 80%, and “C” represents a residual rate of less than 50%.
# [2] = Solubility measurement in ethyl methyl ketone; format: physicochemical; conditions: concentration (% by mass) of compound completely dissolved in ethyl methyl ketone
# Experimental: Ethyl methyl ketone was added dropwise to each of the compounds, and a concentration (% by mass) of the compound in the obtained ethyl methyl ketone solution in a case where the compound was completely dissolved in the solution was measured as “solubility”. It is intended that a higher numerical value of solubility indicates excellent solubility in ethyl methyl ketone.
light fastness (in words) [1],Solubility (MEK) [2] [%],SMILES,Evaluation of light fastness [1]
excellent in light fastness,2,C=CC(=O)OCCCCOc1ccc(C#Cc2ccc(NC(=O)C(=O)Nc3ccc(C#Cc4ccc(OCCCCOC(=O)C=C)cc4)cc3C(F)(F)F)c(C(F)(F)F)c2)cc1 [Compound a-1],A (residual rate of equal to or greater than 80%)
excellent in light fastness,14,C=CC(=O)OCCCCOc1ccc(C#Cc2cc(C)c(NC(=O)C(=O)Nc3ccc(C#Cc4ccc(OCCCCOC(=O)C=C)cc4)cc3C(F)(F)F)c(C)c2)cc1 [Compound a-2],A (residual rate of equal to or greater than 80%)

SMILES,light fastness (in words) [1],Solubility (MEK) [2] [%],Evaluation of light fastness [1]
"C=CC(=O)OCCCCCCOc1ccc(C(=O)Oc2ccc(C#Cc3ccc(CCCCCCC)cc3)cc2)cc1 [Comparative Compound b-1, reference compound]",does not satisfy the desired requirement for light fastness,–,C (residual rate of less than 50%)

# Reference: patent publication US10907099B2, “Compound, composition, cured object, optically anisotropic body, and reflective film” (FUJIFILM Corporation, priority 2016, dated 2021)
